Legend:
velvetleaf [1] = test: Test Example 5: herbicidal effect by foliage application, plastic box (Table 20, symbol M); format: in vivo, velvetleaf (Abutilon theophrasti); conditions: foliage application, 320 g/ha, evaluated three weeks after application
Outline: (§1)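 Post-emergence foliar test in sterilized diluvial soil. Compound applied as water-diluted emulsion at a predetermined rate to 14-day-old plants; evaluation at three weeks.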

barnyard grass [2] = test: Test Example 4: herbicidal effect by soil treatment (Table 19, symbol H); format: in vivo, barnyard grass (Echinochloa crus-galli); conditions: 320 g/ha
Outline: (§2)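 Scoring uses the grading scale of an earlier test, three weeks post-application. Treatment consists of spraying a diluted emulsion formulation across the surface of sterilized diluvial soil in which seeds are buried near 1.5 cm deep; boxes are kept in a greenhouse between 25° C. and 30° C.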

late watergrass = test: Test Example 1: herbicidal activity, application before weed generation under submerged conditions (Table 16, symbol A); format: in vivo, late watergrass (Echinochloa oryzicola); conditions: 320 g/ha applied herbicide
Outline: (§3)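 Emulsion formulation, water-diluted to set dose, was put onto the flooded surface (4 cm depth, alluvial soil) the same day weeds were sown and 2.5-leaf rice transplanted. After 3 weeks at 25-30 °C under glass, each species was rated 0 (≤5% kill) to 5 (≥90% kill).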

wild oat [3] = test: Test Example 5: herbicidal effect by foliage application, plastic box (Table 20, symbol I); format: in vivo, wild oat (Avena fatua); conditions: foliage application, 320 g/ha, evaluated three weeks after application
Outline: as §1

redroot pigweed [4] = test: Test Example 4: herbicidal effect by soil treatment (Table 19, symbol N); format: in vivo, redroot pigweed (Amaranthus retroflexus); conditions: 320 g/ha
Outline: as §2

lambsquarters [5] = test: Test Example 5: herbicidal effect by foliage application, plastic box (Table 20, symbol O); format: in vivo, lambsquarters (Chenopodium album); conditions: foliage application, 320 g/ha, evaluated three weeks after application
Outline: as §1

green foxtail [6] = test: Test Example 4: herbicidal effect by soil treatment (Table 19, symbol G); format: in vivo, green foxtail (Setaria viridis); conditions: 320 g/ha
Outline: as §2

Japanese bulrush = test: Test Example 1: herbicidal activity, application before weed generation under submerged conditions (Table 16, symbol B); format: in vivo, Japanese bulrush (Schoenoplectus juncoides); conditions: 320 g/ha applied herbicide
Outline: as §3

barnyard grass [7] = test: Test Example 3: herbicidal effect by foliage application, Wagner pot (Table 18, symbol H); format: in vivo, barnyard grass (Echinochloa crus-galli); conditions: 320 g/ha
Outline: (§4)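 Plants were sown in alluvial soil held under 0.1–0.5 cm standing water and grown 14 days in a greenhouse at 25–30 °C. An emulsifiable formulation, water-diluted to the set dose, was then sprayed onto the foliage, and effects were scored three weeks later using previously defined criteria.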

redroot pigweed [8] = test: Test Example 5: herbicidal effect by foliage application, plastic box (Table 20, symbol N); format: in vivo, redroot pigweed (Amaranthus retroflexus); conditions: foliage application, 320 g/ha, evaluated three weeks after application
Outline: as §1

chickweed [9] = test: Test Example 4: herbicidal effect by soil treatment (Table 19, symbol P); format: in vivo, common chickweed (Stellaria media); conditions: 320 g/ha
Outline: as §2

false cleavers [10] = test: Test Example 4: herbicidal effect by soil treatment (Table 19, symbol Q); format: in vivo, false cleavers (Galium spurium); conditions: 320 g/ha
Outline: as §2

persian speedwell [11] = test: Test Example 4: herbicidal effect by soil treatment (Table 19, symbol R); format: in vivo, Persian speedwell (Veronica persica); conditions: 320 g/ha
Outline: as §2

barnyard grass [12] = test: Test Example 5: herbicidal effect by foliage application, plastic box (Table 20, symbol H); format: in vivo, barnyard grass (Echinochloa crus-galli); conditions: foliage application, 320 g/ha, evaluated three weeks after application
Outline: as §1

southern crabgrass [13] = test: Test Example 5: herbicidal effect by foliage application, plastic box (Table 20, symbol F); format: in vivo, southern crabgrass (Digitaria ciliaris); conditions: foliage application, 320 g/ha, evaluated three weeks after application
Outline: as §1

windgrass [14] = test: Test Example 4: herbicidal effect by soil treatment (Table 19, symbol L); format: in vivo, windgrass (Apera spica-venti); conditions: 320 g/ha
Outline: as §2

persian speedwell [15] = test: Test Example 5: herbicidal effect by foliage application, plastic box (Table 20, symbol R); format: in vivo, Persian speedwell (Veronica persica); conditions: foliage application, 320 g/ha, evaluated three weeks after application
Outline: as §1

velvetleaf [16] = test: Test Example 4: herbicidal effect by soil treatment (Table 19, symbol M); format: in vivo, velvetleaf (Abutilon theophrasti); conditions: 320 g/ha
Outline: as §2

oval-leafed pondweed = test: Test Example 1: herbicidal activity, application before weed generation under submerged conditions (Table 16, symbol C); format: in vivo, oval-leafed pondweed (Monochoria vaginalis); conditions: 320 g/ha applied herbicide
Outline: as §3

southern crabgrass [17] = test: Test Example 4: herbicidal effect by soil treatment (Table 19, symbol F); format: in vivo, southern crabgrass (Digitaria ciliaris); conditions: 320 g/ha
Outline: as §2

blackgrass [18] = test: Test Example 5: herbicidal effect by foliage application, plastic box (Table 20, symbol J); format: in vivo, blackgrass (Alopecurus myosuroides); conditions: foliage application, 320 g/ha, evaluated three weeks after application
Outline: as §1

lambsquarters [19] = test: Test Example 4: herbicidal effect by soil treatment (Table 19, symbol O); format: in vivo, lambsquarters (Chenopodium album); conditions: 320 g/ha
Outline: as §2

Italian ryegrass [20] = test: Test Example 5: herbicidal effect by foliage application, plastic box (Table 20, symbol K); format: in vivo, Italian ryegrass (Lolium multiflorum); conditions: foliage application, 320 g/ha, evaluated three weeks after application
Outline: as §1

blackgrass [21] = test: Test Example 4: herbicidal effect by soil treatment (Table 19, symbol J); format: in vivo, blackgrass (Alopecurus myosuroides); conditions: 320 g/ha
Outline: as §2

Chinese sprangletop = test: Test Example 3: herbicidal effect by foliage application, Wagner pot (Table 18, symbol D); format: in vivo, chinese sprangletop (Leptochloa chinensis); conditions: 320 g/ha
Outline: as §4

false cleavers [22] = test: Test Example 5: herbicidal effect by foliage application, plastic box (Table 20, symbol Q); format: in vivo, false cleavers (Galium spurium); conditions: foliage application, 320 g/ha, evaluated three weeks after application
Outline: as §1

wild oat [23] = test: Test Example 4: herbicidal effect by soil treatment (Table 19, symbol I); format: in vivo, wild oat (Avena fatua); conditions: 320 g/ha
Outline: as §2

green foxtail [24] = test: Test Example 5: herbicidal effect by foliage application, plastic box (Table 20, symbol G); format: in vivo, green foxtail (Setaria viridis); conditions: foliage application, 320 g/ha, evaluated three weeks after application
Outline: as §1

Italian ryegrass [25] = test: Test Example 4: herbicidal effect by soil treatment (Table 19, symbol K); format: in vivo, Italian ryegrass (Lolium multiflorum); conditions: 320 g/ha
Outline: as §2

windgrass [26] = test: Test Example 5: herbicidal effect by foliage application, plastic box (Table 20, symbol L); format: in vivo, windgrass (Apera spica-venti); conditions: foliage application, 320 g/ha, evaluated three weeks after application
Outline: as §1

chickweed [27] = test: Test Example 5: herbicidal effect by foliage application, plastic box (Table 20, symbol P); format: in vivo, common chickweed (Stellaria media); conditions: foliage application, 320 g/ha, evaluated three weeks after application
Outline: as §1

rice flat sedge = test: Test Example 3: herbicidal effect by foliage application, Wagner pot (Table 18, symbol E); format: in vivo, rice flat sedge (Cyperus iria); conditions: 320 g/ha
Outline: as §4

CCCC(=O)Oc1c(C)nn(C)c(=O)c1-c1c(-c2ccc(F)cc2OC)sc2ccc(Cl)cc12 [2-096]
herbicidal effect on M: velvetleaf (velvetleaf [1]): 1 (Herbicidal rate of 5% or more and less than 20%) | herbicidal effect rating, H: barnyard grass (barnyard grass [2]): 2 (Herbicidal rate of 20% or more and less than 40%) | Herbicidal effect on A: late watergrass (grade 0-5) (late watergrass): 1 (Herbicidal rate of 5% or more and less than 20%) | herbicidal effect on I: wild oat (wild oat [3]): 0 (Herbicidal rate of 5% or less (almost no effect)) | herbicidal effect rating, N: redroot pigweed (redroot pigweed [4]): 5 (Herbicidal rate of 90% or more (almost completely withered)) | herbicidal effect on O: lambsquarters (lambsquarters [5]): 3 (Herbicidal rate of 40% or more and less than 70%) | herbicidal effect rating, G: green foxtail (green foxtail [6]): 3 (Herbicidal rate of 40% or more and less than 70%) | Herbicidal effect on B: Japanese bulrush (grade 0-5) (Japanese bulrush): 3 (Herbicidal rate of 40% or more and less than 70%) | herbicidal effect on H (barnyard grass), rating 0-5 (barnyard grass [7]): 3 (Herbicidal rate of 40% or more and less than 70%) | herbicidal effect on N: redroot pigweed (redroot pigweed [8]): 3 (Herbicidal rate of 40% or more and less than 70%) | herbicidal effect rating, P: chickweed (chickweed [9]): 4 (Herbicidal rate of 70% or more and less than 90%) | herbicidal effect rating, Q: false cleavers (false cleavers [10]): 0 (Herbicidal rate of 5% or less (almost no effect)) | herbicidal effect rating, R: persian speedwell (persian speedwell [11]): 0 (Herbicidal rate of 5% or less (almost no effect)) | herbicidal effect on H: barnyard grass (barnyard grass [12]): 4 (Herbicidal rate of 70% or more and less than 90%) | herbicidal effect on F: southern crabgrass (southern crabgrass [13]): 3 (Herbicidal rate of 40% or more and less than 70%) | herbicidal effect rating, L: windgrass (windgrass [14]): 0 (Herbicidal rate of 5% or less (almost no effect)) | herbicidal effect on R: persian speedwell (persian speedwell [15]): 3 (Herbicidal rate of 40% or more and less than 70%) | herbicidal effect rating, M: velvetleaf (velvetleaf [16]): 0 (Herbicidal rate of 5% or less (almost no effect)) | Herbicidal effect on C: oval-leafed pondweed (grade 0-5) (oval-leafed pondweed): 2 (Herbicidal rate of 20% or more and less than 40%) | herbicidal effect rating, F: southern crabgrass (southern crabgrass [17]): 3 (Herbicidal rate of 40% or more and less than 70%) | herbicidal effect on J: blackgrass (blackgrass [18]): 4 (Herbicidal rate of 70% or more and less than 90%) | herbicidal effect rating, O: lambsquarters (lambsquarters [19]): 3 (Herbicidal rate of 40% or more and less than 70%) | herbicidal effect on K: Italian ryegrass (Italian ryegrass [20]): 0 (Herbicidal rate of 5% or less (almost no effect)) | herbicidal effect rating, J: blackgrass (blackgrass [21]): 0 (Herbicidal rate of 5% or less (almost no effect)) | herbicidal effect on D (Chinese sprangletop), rating 0-5 (Chinese sprangletop): 1 (Herbicidal rate of 5% or more and less than 20%) | herbicidal effect on Q: false cleavers (false cleavers [22]): 4 (Herbicidal rate of 70% or more and less than 90%) | herbicidal effect rating, I: wild oat (wild oat [23]): 0 (Herbicidal rate of 5% or less (almost no effect)) | herbicidal effect on G: green foxtail (green foxtail [24]): 3 (Herbicidal rate of 40% or more and less than 70%) | herbicidal effect rating, K: Italian ryegrass (Italian ryegrass [25]): 0 (Herbicidal rate of 5% or less (almost no effect)) | herbicidal effect on L: windgrass (windgrass [26]): 4 (Herbicidal rate of 70% or more and less than 90%) | herbicidal effect on P: chickweed (chickweed [27]): 5 (Herbicidal rate of 90% or more (almost completely withered)) | herbicidal effect on E (rice flat sedge), rating 0-5 (rice flat sedge): 3 (Herbicidal rate of 40% or more and less than 70%)

— US20230085307A1, “PYRIDAZINONE COMPOUND AND HERBICIDE” (NISSAN CHEMICAL CORPORATION, priority 2019, published 2023)
